Measured values as given in US12678451B2, “Cannabinoid and omega fatty acid compositions and methods of using” (GreenWay Herbal Products, LLC, priority 2019, dated 2026).

Assays:
Type in all cases: in vivo
[1] = system: cytokines induced in mice by LPS; experiment: Mouse LPS cytokine model, Example 6C Study 1, omega fatty acids with or without 0.5 mg/kg 1:1 CBD:CBDA; details: 0.5 mg/kg (0.01 mg per mouse)
Description: (§1) A series of experiments using a mouse LPS cytokine animal model were performed. In the mouse LPS cytokine animal model, mice were injected with LPS, which induced the immune response shortly after the mice were injected with one of the potential anti-inflammatory compounds under evaluation (the “test compound”). The efficacy of the test compound was evaluated based on its ability to reduce expression levels of inflammatory cytokines that were elevated due to the immune response. The test compounds included a cannabinoid, an omega fatty acid, and a cannabinoid-omega fatty acid composition.
(§2) The mice were intraperitoneally injected with 0.1 mL of the test compound. One hour later, the mice were intraperitoneally injected with 0.1 mL of LPS in phosphate buffered saline (PBS). Four hours later, a heart puncture was performed and the blood was allowed to clot to generate serum. 0.1 mL of the serum was diluted 1:2 with PBS and stored at −80° C. The serum was then sent to a laboratory where a mouse cytokine array/chemokine array 31-plex (MD31) analysis was performed that analyzed the expression levels of the 32 cytokines/chemokines listed in Table 9, above.
(§3) For each considered test compound, the ability of the test compound to suppress each inflammatory cytokine was calculated by determining the percent suppression.
(§4) In this study, the effects of combining 1:1 CBD:CBDA with anti-inflammatory omega unsaturated fatty acids using the mouse LPS cytokine animal model were examined.
32 female C57BL/6 mice that weighed approximately 20 g each were allowed to acclimate for one week with unlimited access to food and water. On the day of the study, the mice were weighed and split into eight groups of four mice each so that the average weight of each group was as close as possible to each other.
(§5) Because the purpose of this experiment was to evaluate the effectiveness of combining 1:1 CBD:CBDA and the anti-inflammatory omega fatty acids, only cytokines that could be suppressed by one of the anti-inflammatory agents used in this study were considered.

[2] = system: cytokines induced in mice by LPS; experiment: Mouse LPS cytokine model, Example 6C Study 2, omega fatty acids with or without 0.5 mg/kg 1:1 CBD:CBDA; details: 0.5 mg/kg (0.01 mg per mouse)
Description: as §1, §2, §3, §4
(§6) 40 female C57BL/6 mice that weighed approximately 20 g each were allowed to acclimate for one week with unlimited access to food and water. On the day of the study, the mice were weighed and split into ten groups of four mice each so that the average weight of each group was as close as possible to each other. […] (9) LPS plus 37.50 mg omega fatty acids (0.1 mL injection of 375.00 mg/mL omega fatty acids diluted in MCT oil, followed 1 hour later by a 0.1 mL injection of LPS in PBS); and (10) LPS plus 37.50 mg omega fatty acids/0.01 mg 1:1 CBD:CBDA (0.1 mL injection of 375.00 mg/mL omega fatty acids/0.1 mg/mL 1:1 CBD:CBDA diluted in MCT oil, followed 1 hour later by a 0.1 mL injection of LPS in PBS).
as §5

[3] = system: cytokines induced in mice by LPS; experiment: Mouse LPS cytokine model, Example 6C Study 3, omega fatty acids with or without 0.25 mg/kg 1:1 CBD:CBDA
Description: as §1, §2, §3, §4
as §6, with “acids/0.005” for “acids/0.01”, “acids/0.05” for “acids/0.1”
as §5, with “24 out of the 32 analyzed cytokines were induced two-fold by LPS. Because” for “Because”, “considered. 24 out of the 24 cytokines whose expression level was induced-two fold or greater by LPS met these criteria.” for “considered.”

[4] = 0.01 mg dexamethasone in MCT oil

C[C@@H]1C[C@H]2[C@@H]3CCC4=CC(=O)C=C[C@]4(C)[C@@]3(F)[C@@H](O)C[C@]2(C)[C@@]1(O)C(=O)CO [Dexamethasone, dexamethasone]
AVERAGE SUPPRESSION [1]: 20.66%
IFNγ suppression [1]: −41.63%
IL-1β suppression [1]: 19.75%
IL-6 suppression [1]: 64.76%
IL-10 suppression [1]: 19.59%
IL-12 p70 suppression [1]: 10.64%
IL-12β p40 suppression [1]: 39.02%
IL-15 suppression [1]: 26.30%
IL-17 suppression [1]: 49.77%
IP-10 suppression [1]: 24.44%
KC suppression [1]: 40.63%
LIF suppression [1]: 29.55%
MCP-1 suppression [1]: 26.32%
MIG suppression [1]: 3.78%
MIP-1α suppression [1]: 26.86%
MIP-1β suppression [1]: 5.51%
MIP-2 suppression [1]: 34.16%
RANTES suppression [1]: −13.70%
TNF-α suppression [1]: 26.92%
AVERAGE SUPPRESSION [2]: 46.54%
IFNγ suppression [2]: 70.28%
IL-6 suppression [2]: 76.63%
IL-7 suppression [2]: 31.25%
IL-10 suppression [2]: 24.07%
IL-12β p40 suppression [2]: 56.90%
IL-15 suppression [2]: 42.45%
IL-17 suppression [2]: 64.04%
IP-10 suppression [2]: 44.62%
KC suppression [2]: 79.04%
LIF suppression [2]: 51.34%
MCP-1 suppression [2]: 57.38%
MIG suppression [2]: 20.57%
MIP-1α suppression [2]: 59.54%
MIP-1β suppression [2]: 27.89%
RANTES suppression [2]: 46.25%
TNF-α suppression [2]: 61.44%
Percent suppression of elevated cytokine levels, Eotaxin [3, 4]: 7.26%
Percent suppression of elevated cytokine levels, IFNγ [3, 4]: 44.52%
Percent suppression of elevated cytokine levels, IL-1β [3, 4]: 35.53%
Percent suppression of elevated cytokine levels, IL-2 [3, 4]: −9.46%
Percent suppression of elevated cytokine levels, IL-6 [3, 4]: 85.95%
Percent suppression of elevated cytokine levels, IL-7 [3, 4]: 96.66%
Percent suppression of elevated cytokine levels, IL-10 [3, 4]: 57.41%
Percent suppression of elevated cytokine levels, IL-12β p40 [3, 4]: 54.79%
Percent suppression of elevated cytokine levels, IL-12β p70 [3, 4]: −51.07%
Percent suppression of elevated cytokine levels, IL-13 [3, 4]: 11.39%
Percent suppression of elevated cytokine levels, IL-15 [3, 4]: −13.42%
Percent suppression of elevated cytokine levels, IL-17 [3, 4]: 63.75%
Percent suppression of elevated cytokine levels, IP-10 [3, 4]: 42.02%
Percent suppression of elevated cytokine levels, KC [3, 4]: 60.10%
Percent suppression of elevated cytokine levels, LIF [3, 4]: 47.18%
Percent suppression of elevated cytokine levels, MCP-1 [3, 4]: 57.29%
Percent suppression of elevated cytokine levels, MIG [3, 4]: −0.29%
Percent suppression of elevated cytokine levels, MIP-1α [3, 4]: 47.13%
Percent suppression of elevated cytokine levels, MIP-1β [3, 4]: 34.67%
Percent suppression of elevated cytokine levels, MIP-2 [3, 4]: 37.57%
Percent suppression of elevated cytokine levels, RANTES [3, 4]: 37.87%
Percent suppression of elevated cytokine levels, TNF-α [3, 4]: 51.43%
Percent suppression of elevated cytokine levels, VEGF [3, 4]: 75.98%
Percent suppression of elevated cytokine levels, AVERAGE SUPPRESSION ([3]; 0.01 mg dexamethasone in MCT oil, average of 24 cytokines): 37.59%
decrease in the cytokine expression levels (average) ([3]; 0.01 mg per mouse): 37.59%
